Measured values from US7314858B2, “Retrocyclins: antiviral and antimicrobial peptides” (priority 2001, dated 2008).
Values joined by “and” are separate entries in the source; they are usually repeats but may differ in a detail not shown here. Equal values may be shown once. Where a SMILES comes first, the peptide text is derived from it. Bridges are numbered along the chain shown (N, C = ends). [ ]: non-standard residue; d: D form.

Each molecule was assayed on human red blood cells (assay: Hemagglutination of washed red blood cells in PBS). Conditions: not given.
Procedure: Hemagglutination was tested by adding the stated concentration of peptide to a well comprising red blood cells (shown in FIG. 22). When the RBC are agglutinated, they clump together and settle rapidly and form a diffuse circle covering much of the bottom of the well. In the absence of agglutination, they settle more slowly and form a compact red button in the center of the well.
Sequences of retrocyclin-related peptides that were synthesized and either tested for activity against HIV-1 (see FIGS. 21A and 21B) and/or for their ability to cause human red blood cells to hemagglutinate or both. NT signifies not tested. Linear sequences appear in the table, but all peptides were cyclic and contained three intramolecular disulfide bonds. Hemagglutination of washed human red blood cells was tested in PBS, at peptide concentrations of 50, 25, 12.5 6.25 and 3.12 μg/ml. The lowest concentrations that caused hemagglutination are shown. Peptide concentrations were determined by amino acid analysis or by AUC (area under the curve) RP-HPLC analysis with reference to amino-acid analyzed standards.

Molecule	Hemagglutination seen at a concentration of (lowest concentration that caused hemagglutination) [µg/mL]
R→K Retrocyclin-1 (cyclo(GICKCICGKGICKCICGR); disulfide (positions not given here); ring closure inferred; not fully specified (bridges)) [RC119]	50

Same assay, conditions: washed human red blood cells in PBS

Molecule	Hemagglutination seen at a concentration of (lowest concentration that caused hemagglutination)	hemagglutination compared with retrocyclin
CC[C@H](C)[C@@H]1NC(=O)CNC(=O)[C@H](CCCNC(=N)N)NC(=O)CNC(=O)[C@@H]2CSSC[C@H](NC1=O)C(=O)N[C@@H](CCCNC(=N)N)C(=O)N[C@H]1CSSC[C@H](NC(=O)[C@H](CCCNC(=N)N)NC(=O)[C@@H]3CSSC[C@H](NC(=O)[C@H]([C@@H](C)CC)NC1=O)C(=O)NCC(=O)N[C@@H](CCCCN)C(=O)N[C@@H](CCCNC(=N)N)C(=O)N[C@@H]([C@@H](C)CC)C(=O)N3)C(=O)N[C@@H]([C@@H](C)CC)C(=O)N2 [RC123A, Retrocyclin 2A] (cyclo(CGKRICRCICGRGICRCI); disulfide 1-6, 8-17, 10-15)	50 µg/mL	less hemagglutination than retrocyclin-1 or retrocyclin-2
CC[C@H](C)[C@@H]1NC(=O)CNC(=O)[C@H](CCCNC(=N)N)NC(=O)CNC(=O)[C@@H]2CSSC[C@H](NC1=O)C(=O)N[C@@H](CCCNC(=N)N)C(=O)N[C@H]1CSSC[C@H](NC(=O)[C@H](CCCNC(=N)N)NC(=O)[C@@H]3CSSC[C@H](NC(=O)[C@H]([C@@H](C)CC)NC1=O)C(=O)NCC(=O)N[C@@H](CCCCN)C(=O)N[C@@H](CCCCN)C(=O)N[C@@H]([C@@H](C)CC)C(=O)N3)C(=O)N[C@@H]([C@@H](C)CC)C(=O)N2 [RC123B, Retrocyclin 2B] (cyclo(CGKKICRCICGRGICRCI); disulfide 1-6, 8-17, 10-15)	6.25 µg/mL	
CC[C@H](C)[C@@H]1NC(=O)CNC(=O)[C@H](CCCNC(=N)N)NC(=O)CNC(=O)[C@@H]2CSSC[C@H](NC1=O)C(=O)N[C@@H](CCCNC(=N)N)C(=O)N[C@H]1CSSC[C@H](NC(=O)[C@H](CCCNC(=N)N)NC(=O)[C@@H]3CSSC[C@H](NC(=O)[C@H]([C@@H](C)CC)NC1=O)C(=O)NCC(=O)N[C@@H](CCCNC(=N)N)C(=O)N[C@@H](CCCCN)C(=O)N[C@@H]([C@@H](C)CC)C(=O)N3)C(=O)N[C@@H]([C@@H](C)CC)C(=O)N2 [RC123C, Retrocyclin 2C] (cyclo(CGRGICRCICGRKICRCI); disulfide 1-6, 8-17, 10-15)	50 µg/mL	less hemagglutination than retrocyclin-1 or retrocyclin-2
CC[C@H](C)[C@@H]1NC(=O)CNC(=O)[C@H](CCCNC(=N)N)NC(=O)CNC(=O)[C@@H]2CSSC[C@H](NC1=O)C(=O)N[C@@H](CCCNC(=N)N)C(=O)N[C@H]1CSSC[C@H](NC(=O)[C@H](CCCCN)NC(=O)[C@@H]3CSSC[C@H](NC(=O)[C@H]([C@@H](C)CC)NC1=O)C(=O)NCC(=O)N[C@@H](CCCNC(=N)N)C(=O)N[C@@H](CCCNC(=N)N)C(=O)N[C@@H]([C@@H](C)CC)C(=O)N3)C(=O)N[C@@H]([C@@H](C)CC)C(=O)N2 [RC123D, Retrocyclin 2D] (cyclo(CGRGICRCICGRRICKCI); disulfide 1-6, 8-17, 10-15)	50 µg/mL	
CC[C@H](C)[C@@H]1NC(=O)CNC(=O)[C@H](CCCNC(=N)N)NC(=O)CNC(=O)[C@@H]2CSSC[C@H](NC1=O)C(=O)N[C@@H](CCCCN)C(=O)N[C@H]1CSSC[C@H](NC(=O)[C@H](CCCNC(=N)N)NC(=O)[C@@H]3CSSC[C@H](NC(=O)[C@H]([C@@H](C)CC)NC1=O)C(=O)NCC(=O)N[C@@H](CCCNC(=N)N)C(=O)N[C@@H](CCCNC(=N)N)C(=O)N[C@@H]([C@@H](C)CC)C(=O)N3)C(=O)N[C@@H]([C@@H](C)CC)C(=O)N2 [RC123E, Retrocyclin 2E] (cyclo(CGRGICKCICGRRICRCI); disulfide 1-6, 8-17, 10-15)	25 µg/mL	
CC[C@@H](C)[C@H]1NC(=O)CNC(=O)[C@@H](CCCNC(=N)N)NC(=O)CNC(=O)[C@H]2CSSC[C@@H](NC1=O)C(=O)N[C@H](CCCNC(=N)N)C(=O)N[C@@H]1CSSC[C@@H](NC(=O)[C@@H](CCCNC(=N)N)NC(=O)[C@H]3CSSC[C@@H](NC(=O)[C@@H]([C@H](C)CC)NC1=O)C(=O)NCC(=O)N[C@H](CCCNC(=N)N)C(=O)NCC(=O)N[C@H]([C@H](C)CC)C(=O)N3)C(=O)N[C@H]([C@H](C)CC)C(=O)N2 [RC-112, enantio-retrocyclin] (cyclo(G[dI][dC][dR][dC][dI][dC]G[dR]G[dI][dC][dR][dC][dI][dC]G[dR]); disulfide 3-16, 5-14, 7-12)	50 µg/mL	less hemagglutination than retrocyclin-1 or retrocyclin-2
CC[C@@H](C)[C@H]1NC(=O)CNC(=O)[C@@H](CCCCN)NC(=O)CNC(=O)[C@H]2CSSC[C@@H](NC1=O)C(=O)N[C@H](CCCNC(=N)N)C(=O)N[C@@H]1CSSC[C@@H](NC(=O)[C@@H](CCCNC(=N)N)NC(=O)[C@H]3CSSC[C@@H](NC(=O)[C@@H]([C@H](C)CC)NC1=O)C(=O)NCC(=O)N[C@H](CCCNC(=N)N)C(=O)NCC(=O)N[C@H]([C@H](C)CC)C(=O)N3)C(=O)N[C@H]([C@H](C)CC)C(=O)N2 [RC-113, enantio-RC-101]	50 µg/mL	less hemagglutination than retrocyclin-1 or retrocyclin-2
CC[C@H](C)[C@@H]1NC(=O)CNC(=O)[C@H](CCCCN)NC(=O)CNC(=O)[C@@H]2CSSC[C@H](NC1=O)C(=O)N[C@@H](CCCNC(=N)N)C(=O)N[C@H]1CSSC[C@H](NC(=O)[C@H](CCCNC(=N)N)NC(=O)[C@@H]3CSSC[C@H](NC(=O)[C@H](Cc4ccc(O)cc4)NC1=O)C(=O)NCC(=O)N[C@@H](CCCNC(=N)N)C(=O)NCC(=O)N[C@@H]([C@@H](C)CC)C(=O)N3)C(=O)N[C@@H]([C@@H](C)CC)C(=O)N2 [RC-114, RC-101/103 hybrid] (cyclo(CGKGICRCYCGRGICRCI); disulfide 1-6, 8-17, 10-15)	200 µg/mL and > 150 µg/mL	much less hemagglutination than retrocyclin

What follows are molecules tested on HIV-1 strain IIIB (assay: HIV-1 IIIB infection of CD4+ PBMC, p24 antigen ELISA). Conditions: CD4+ PBMC, IIIB (X4), peptide 10-20 μg/ml.
Assay type: cell-based
Procedure: FIG. 5A-C. Anti-HIV-1 activity of retrocyclin. Two strains of HIV-1 and two types of human target cells were used. The IIIB strain is T-cell tropic (X4) and utilizes the CXCR4 co-receptor for entry; the JR-CSF strain is M-tropic (R5) and uses CCR5 for entry. PBMC signifies CD4^+-selected peripheral blood mononuclear cells. […] (A) Two concentrations of retrocyclin (2 μg/ml, 20 μg/ml), 20 μg/ml of the Rhesus circular defensin “RTD-1”, and 20 μg/ml of a horseshoe crab-derived peptide “T140”, reported to only prevent X4 infections, were tested in antiviral assays of against strain IIIB in H9 cells (n=2-6 per peptide; error bars indicate SEM). (B) To confirm our results with primary human cells, similar assays were performed utilizing IIIB virus and CD4^+ PBMC or (C) JR-CSF virus and CD4^+ PBMC. […] Average of duplicate experiments are reported for studies with PBMCs. Assay sensitivity=10 pg/ml.
Either HIV-1-permissive H9 cells were used as targets, or primary CD4^+ lymphocytes from HIV-1-seronegative donors generated from freshly purified peripheral blood mononuclear cells (PBMC) stimulated with a CD3-CD8 bispecific monoclonal antibody. […] These cells were maintained in RPMI containing 10% FCS supplemented with 2 mM glutamine, 100 U of penicillin/ml, 10 μg of streptomycin/ml, and 50 U of interleukin 2/ml (R10-50 media).
Examining the effect of adding retrocyclin at various times pre- and post-HIV-1 infection. […] Primary CD4^+ PBMC were incubated with HIV-IIIB (FIG. 6) or HIV-JR-CSF for 3 hours in the presence or absence of 20 μg/ml retrocyclin. The cells were subsequently washed in media, and incubated an additional 9 days. Retrocyclin (20 μg/ml) was added back to some of the cultures at time points specified in FIG. 6 and infection was monitored by p24 ELISA as previously described. […]

Molecule	inhibition of HIV-1 replication (p24)
I11Y-Retrocyclin (cyclo(GICRCICGRGYCRCICGR); disulfide (positions not given here); ring closure inferred; not fully specified (bridges)) [RC-105]	either inactive or only modestly active
